Experiments:
Experiment in all cases: relative viability (nuclei count vs DMSO), 5 days (fraction); higher = more cells survive
Neratinib + Pemetrexed = compound: CCOc1cc2ncc(C#N)c(Nc3ccc(OCc4ccccn4)c(Cl)c3)c2cc1NC(=O)/C=C/CN(C)C [Neratinib] + Nc1nc2[nH]cc(CCc3ccc(C(=O)N[C@@H](CCC(=O)O)C(=O)O)cc3)c2c(=O)[nH]1 [Pemetrexed] (partner 0.2 µM)
Summary of the method: (§1)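 For relative viability, nuclei counts in treated wells were divided by those in vehicle wells. Lung cancer cell lines had been pin-tool dosed in 1536-well plates the day after seeding and cultured for 5 days, then fixed and stained in one step (final 0.05% Triton X-100, 1% formaldehyde, 1 ug/ml Hoechst) and imaged at 4×. Doses were one drug alone or a fixed anchor-drug dose plus five library-drug doses (not always all listed) in √10 steps, and values are duplicate-plate medians.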

Neratinib + Vorinostat = compound: CCOc1cc2ncc(C#N)c(Nc3ccc(OCc4ccccn4)c(Cl)c3)c2cc1NC(=O)/C=C/CN(C)C [Neratinib] + O=C(CCCCCCC(=O)Nc1ccccc1)NO [Vorinostat] (partner 1 µM)
Summary of the method: as §1

Neratinib + Olaparib = compound: CCOc1cc2ncc(C#N)c(Nc3ccc(OCc4ccccn4)c(Cl)c3)c2cc1NC(=O)/C=C/CN(C)C [Neratinib] + O=C(c1cc(Cc2n[nH]c(=O)c3ccccc23)ccc1F)N1CCN(C(=O)C2CC2)CC1 [Olaparib] (partner 8 µM)
Summary of the method: as §1

Neratinib + Linsitinib = compound: CCOc1cc2ncc(C#N)c(Nc3ccc(OCc4ccccn4)c(Cl)c3)c2cc1NC(=O)/C=C/CN(C)C [Neratinib] + C[C@]1(O)C[C@@H](c2nc(-c3ccc4ccc(-c5ccccc5)nc4c3)c3c(N)nccn32)C1 [Linsitinib] (partner 1 µM)
Summary of the method: as §1

Row | Cell Line | relative viability (Neratinib + Pemetrexed; first compound 0.01 µM) | relative viability (Neratinib + Pemetrexed; first compound 0.03162 µM) | relative viability (Neratinib + Pemetrexed; first compound 0.1 µM) | relative viability (Neratinib + Pemetrexed; first compound 0.3162 µM) | relative viability (Neratinib + Pemetrexed; first compound 1 µM) | relative viability (Neratinib + Vorinostat; first compound 0.01 µM) | relative viability (Neratinib + Vorinostat; first compound 0.03162 µM) | relative viability (Neratinib + Vorinostat; first compound 0.1 µM) | relative viability (Neratinib + Vorinostat; first compound 0.3162 µM) | relative viability (Neratinib + Vorinostat; first compound 1 µM) | relative viability (Neratinib + Olaparib; first compound 0.01 µM) | relative viability (Neratinib + Olaparib; first compound 0.03162 µM) | relative viability (Neratinib + Olaparib; first compound 0.1 µM) | relative viability (Neratinib + Olaparib; first compound 0.3162 µM) | relative viability (Neratinib + Linsitinib; first compound 0.01 µM) | relative viability (Neratinib + Linsitinib; first compound 0.03162 µM) | relative viability (Neratinib + Linsitinib; first compound 0.1 µM) | relative viability (Neratinib + Linsitinib; first compound 0.3162 µM) | relative viability (Neratinib + Linsitinib; first compound 1 µM) | relative viability (Neratinib + Olaparib; first compound 1 µM)
1 | LU99A | 0.185 | 0.194 | 0.155 | 0.21 | 0.188 | 0.428 | 0.465 | 0.469 | 0.529 | 0.43 | 0.251 | 0.286 | 0.246 | 0.268 | 0.608 | 0.643 | 0.365 | 0.575 | 0.215 | –
2 | LXF-289 | 0.881 | 0.981 | 0.834 | 0.933 | 0.87 | 0.819 | 0.866 | 0.732 | 0.803 | 0.765 | 1.12 | 1.28 | 0.931 | 1.06 | 0.998 | 1.01 | 0.913 | 0.98 | 0.789 | 0.889
3 | NCI-H727 | – | – | – | – | – | 1.05 | 1.1 | – | 1.11 | 0.899 | 0.796 | 0.678 | – | 0.764 | 0.244 | 0.282 | – | 0.286 | 0.255 | 0.613
4 | NCI-H1299 | – | – | – | – | – | – | – | – | – | – | 0.954 | 0.983 | 0.85 | 0.99 | 0.996 | 1.07 | 0.846 | 0.944 | – | 0.974
5 | NCI-H1563 | 0.812 | 0.924 | 0.739 | 0.747 | 0.582 | – | – | – | – | – | – | – | – | – | 1.22 | 1.24 | 0.993 | 1.1 | 0.998 | –
6 | NCI-H1648 | 0.836 | 0.799 | 0.663 | 0.685 | 0.55 | 0.328 | 0.427 | 0.283 | 0.304 | 0.368 | 0.855 | 0.917 | 0.806 | 0.643 | – | – | – | – | – | 0.427
7 | NCI-H1650 | 0.381 | 0.348 | 0.31 | 0.314 | 0.325 | 0.381 | 0.615 | 0.49 | 0.419 | 0.447 | 0.867 | 0.712 | 0.717 | 0.652 | – | – | – | – | – | 0.796
8 | NCI-H1703 | – | – | – | – | – | – | – | – | – | – | 0.536 | 0.486 | 0.402 | 0.218 | 0.636 | 0.641 | 0.659 | 0.516 | 0.509 | 0.162
9 | NCI-H1792 | 0.826 | 1.16 | 0.716 | 0.812 | 0.538 | – | – | – | – | – | 0.0369 | 0.65 | 0.376 | 0.257 | 0.505 | 0.468 | 0.53 | 0.489 | 0.463 | 0.174
10 | NCI-H2170 | 0.275 | 0.261 | 0.237 | 0.203 | 0.196 | 0.862 | 0.647 | 0.407 | 0.205 | 0.239 | 0.627 | 0.49 | 0.32 | 0.151 | – | – | – | – | – | 0.158
11 | SW 900 | 0.514 | 0.473 | 0.426 | 0.454 | 0.371 | 0.414 | 0.738 | 0.473 | 0.451 | 0.506 | 0.975 | 0.826 | 0.714 | 0.662 | – | – | – | – | – | 0.607
